{"source": "patent US11524938B2", "about": "“Aromatic sulfonamide derivatives” (Bayer Pharma Aktiengesellschaft, priority 2016, dated 2022)", "target": "T1, human P2X4 (Homo sapiens, UniProt Q99571)", "T1 sequence (Q99571 1-388)": "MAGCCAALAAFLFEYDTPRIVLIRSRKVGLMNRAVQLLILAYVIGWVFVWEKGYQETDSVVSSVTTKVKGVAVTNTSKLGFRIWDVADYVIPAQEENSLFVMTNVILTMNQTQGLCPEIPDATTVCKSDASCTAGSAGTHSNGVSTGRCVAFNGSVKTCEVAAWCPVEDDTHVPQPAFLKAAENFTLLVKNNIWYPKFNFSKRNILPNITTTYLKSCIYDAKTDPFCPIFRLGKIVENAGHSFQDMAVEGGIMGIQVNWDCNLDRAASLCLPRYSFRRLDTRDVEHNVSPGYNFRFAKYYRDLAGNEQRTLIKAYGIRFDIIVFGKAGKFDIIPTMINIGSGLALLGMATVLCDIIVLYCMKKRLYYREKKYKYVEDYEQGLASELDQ", "assay": "Human P2X4 HEK Cell FLIPR Assay", "assay_type": "cell-based", "conditions": "agonist Bz-ATP at EC80; for Emax: HEK293, HEK293 cells, percentage of maximal inhibition, read-out: Human P2X4 HEK Cells (FLIPR Assay) avg Efficacy [%]; for IC50: HEK293 cells, individual values listed where some fall outside detection range", "procedure,_shortened": "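HEK293 cells stably expressing human P2X4, Fluo8-AM loaded 30 min at 37° C, then compound 30 min at room temperature (0.5% DMSO, pH 7.4 buffer with 1.8 mM CaCl2). Bz-ATP at its daily-determined EC80 added; calcium fluorescence read over 120 sec; IC50 from peak RFU normalized to agonist control, triplicates.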", "note": "Where “and” joins values, the source holds several entries; their conditions need not be identical. Equal entries are not always repeated."}
{"smiles": "NS(=O)(=O)c1cc(NC(=O)Cc2c(F)ccc(F)c2Cl)ccc1-n1cc(C(F)(F)F)cn1", "note": "[Example 133, 2-(2-Chloro-3,6-difluorophenyl)-N-{3-sulfamoyl-4-[4-(trifluoromethyl)-1H-pyrazol-1-yl]phenyl}acetamide]", "values": [{"measurement": "Emax", "result": 82, "unit": "%"}, {"measurement": "IC50", "result": 107, "unit": "nM"}]}
{"smiles": "CN(C(=O)c1cnn(-c2ccc(NC(=O)Cc3ccccc3Cl)cc2S(N)(=O)=O)c1)C1CC1", "note": "[Example 497, 1-(4-{[(2-Chlorophenyl)acetyl]amino}-2-sulfamoylphenyl)-N-cyclopropyl-N-methyl-1H-pyrazole-4-carboxamide]", "values": [{"measurement": "Emax", "result": 97, "unit": "%"}, {"measurement": "IC50", "result": 54, "unit": "nM"}]}
{"smiles": "NS(=O)(=O)c1cc(NC(=O)Cc2ccccc2Cl)ccc1-c1cn[nH]c1", "note": "[Example 367, 2-(2-Chlorophenyl)-N-[4-(1H-pyrazol-4-yl)-3-sulfamoylphenyl]acetamide]", "values": [{"measurement": "Emax", "result": 83, "unit": "%"}, {"measurement": "IC50", "result": 131, "unit": "nM"}]}
{"smiles": "NS(=O)(=O)c1cc(NC(=O)Cc2ccccc2Cl)ccc1-c1ncc(N2CCOCC2)s1", "note": "[Example 550, 2-(2-Chlorophenyl)-N-{4-[5-(morpholin-4-yl)-1,3-thiazol-2-yl]-3-sulfamoylphenyl}acetamide]", "values": [{"measurement": "Emax", "result": 87, "unit": "%"}, {"measurement": "IC50", "result": 1, "unit": "nM"}]}
{"smiles": "COc1ccc(CC(=O)Nc2ccc(-n3cc(C(F)(F)F)cn3)c(S(N)(=O)=O)c2)c(Cl)c1", "note": "[Example 135, 2-(2-Chloro-4-methoxyphenyl)-N-{3-sulfamoyl-4-[4-(trifluoromethyl)-1H-pyrazol-1-yl]phenyl}acetamide]", "values": [{"measurement": "Emax", "result": 90, "unit": "%"}, {"measurement": "IC50", "result": 73, "unit": "nM"}]}
{"smiles": "NS(=O)(=O)c1cc(NC(=O)Cc2ccc(F)c(F)c2)ccc1-c1cncc(C(F)(F)F)c1", "note": "[Example 451, 2-(3,4-Difluorophenyl)-N-{3-sulfamoyl-4-[5-(trifluoromethyl)pyridin-3-yl]phenyl}acetamide]", "values": [{"measurement": "Emax", "result": 86, "unit": "%"}, {"measurement": "IC50", "result": 244, "unit": "nM"}]}
{"smiles": "CC(C)c1ncn(-c2ccc(NC(=O)Cc3ccccc3Cl)cc2S(N)(=O)=O)n1", "note": "[Example 233, 2-(2-Chlorophenyl)-N-[4-(3-isopropyl-1H-1,2,4-triazol-1-yl)-3-sulfamoylphenyl]-acetamide]", "values": [{"measurement": "Emax", "result": 80, "unit": "%"}, {"measurement": "IC50", "result": 93, "unit": "nM"}]}
{"smiles": "Cc1ccccc1CC(=O)Nc1ccc(-n2cc(C#N)cn2)c(S(N)(=O)=O)c1", "note": "[Example 197, N-[4-(4-Cyano-1H-pyrazol-1-yl)-3-sulfamoylphenyl]-2-(2-methylphenyl)acetamide]", "values": [{"measurement": "Emax", "result": 87, "unit": "%"}, {"measurement": "IC50", "result": 86, "unit": "nM"}]}
{"smiles": "N#Cc1cnn(-c2ccc(NC(=O)Cc3c(Cl)cccc3C(F)(F)F)cc2S(N)(=O)=O)c1", "note": "[Example 215, 2-[2-Chloro-6-(trifluoromethyl)phenyl]-N-[4-(4-cyano-1H-pyrazol-1-yl)-3-sulfamoylphenyl]acetamide]", "values": [{"measurement": "Emax", "result": 95, "unit": "%"}, {"measurement": "IC50", "result": 38, "unit": "nM"}]}
{"smiles": "NS(=O)(=O)c1cc(NC(=O)Cc2cc(Cl)ccc2F)ccc1-c1cnn(C2CC2)c1", "note": "[Example 371, 2-(5-Chloro-2-fluorophenyl)-N-[4-(1-cyclopropyl-1H-pyrazol-4-yl)-3-sulfamoylphenyl]acetamide]", "values": [{"measurement": "Emax", "result": 99, "unit": "%"}, {"measurement": "IC50", "result": 152, "unit": "nM"}]}
{"smiles": "NS(=O)(=O)c1cc(NC(=O)Cc2c(Cl)cccc2C(F)(F)F)c(C(F)(F)F)cc1-n1cc(F)cn1", "note": "[Example 535, 2-[2-Chloro-6-(trifluoromethyl)phenyl]-N-[4-(4-fluoro-1H-pyrazol-1-yl)-5-sulfamoyl-2-(trifluoromethyl)phenyl]acetamide]", "values": [{"measurement": "Emax", "result": 91, "unit": "%"}, {"measurement": "IC50", "result": 3840, "unit": "nM"}]}
{"smiles": "N#Cc1cnn(-c2ccc(NC(=O)Cc3ccccc3F)cc2S(N)(=O)=O)c1", "note": "[Example 52, N-[4-(4-Cyano-1H-pyrazol-1-yl)-3-sulfamoylphenyl]-2-(2-fluorophenyl)acetamide]", "values": [{"measurement": "Emax", "result": 82, "unit": "%"}, {"measurement": "IC50", "result": 154, "unit": "nM"}]}
{"smiles": "NS(=O)(=O)c1cc(NC(=O)Cc2ccccc2Cl)ccc1-n1cc(Cl)cc(Cl)c1=O", "note": "[Example 3, 2-(2-Chlorophenyl)-N-[4-(3,5-dichloro-2-oxopyridin-1(2H)-yl)-3-sulfamoylphenyl]-acetamide]", "values": [{"measurement": "Emax", "result": 76, "unit": "%"}, {"measurement": "IC50", "result": 942, "unit": "nM"}]}
{"smiles": "NS(=O)(=O)c1cc(NC(=O)Cc2ccccc2F)ccc1-c1ccc(Cl)nc1", "note": "[Example 460, N-[4-(6-Chloropyridin-3-yl)-3-sulfamoylphenyl]-2-(2-fluorophenyl)acetamide]", "values": [{"measurement": "Emax", "result": 84, "unit": "%"}, {"measurement": "IC50", "result": 646, "unit": "nM"}]}
{"smiles": "NS(=O)(=O)c1cc(NC(=O)Cc2ccccc2Cl)ccc1-n1ccc(C(F)F)n1", "note": "[Example 12, 2-(2-Chlorophenyl)-N-{4-[3-(difluoromethyl)-1H-pyrazol-1-yl]-3-sulfamoyl-phenyl}acetamide]", "values": [{"measurement": "Emax", "result": 34, "unit": "%"}, {"measurement": "IC50", "result": "> 25000", "unit": "nM"}]}
{"smiles": "NS(=O)(=O)c1cc(NC(=O)Cc2ccccc2Cl)ccc1-c1cscn1", "note": "[Example 437, 2-(2-Chlorophenyl)-N-[3-sulfamoyl-4-(1,3-thiazol-4-yl)phenyl]acetamide]", "values": [{"measurement": "Emax", "result": 53, "unit": "%"}, {"measurement": "IC50", "result": 39, "unit": "nM"}]}
{"smiles": "NS(=O)(=O)c1cc(NC(=O)Cc2ccccc2Cl)ccc1-c1cnn(C2CCCCO2)c1", "note": "(stereo not shown) [Example 345, 2-(2-Chlorophenyl)-N-{3-sulfamoyl-4-[1-(tetrahydro-2H-pyran-2-yl)-1H-pyrazol-4-yl]phenyl}acetamide]", "values": [{"measurement": "Emax", "result": 93, "unit": "%"}, {"measurement": "IC50", "result": 46, "unit": "nM"}]}
{"smiles": "NS(=O)(=O)c1cc(NC(=O)Cc2ccc(F)c(F)c2)ccc1-n1cc(C(F)(F)F)cn1", "note": "[Example 118, 2-(3,4-Difluorophenyl)-N-{3-sulfamoyl-4-[4-(trifluoromethyl)-1H-pyrazol-1-yl]phenyl}-acetamide]", "values": [{"measurement": "Emax", "result": 53, "unit": "%"}, {"measurement": "IC50", "result": 347, "unit": "nM"}]}
{"smiles": "NS(=O)(=O)c1cc(NC(=O)Cc2ccc(F)cc2Cl)ccc1-n1cc(Cl)cn1", "note": "[Example 88, 2-(2-Chloro-4-fluorophenyl)-N-[4-(4-chloro-1H-pyrazol-1-yl)-3-sulfamoyl-phenyl]acetamide]", "values": [{"measurement": "Emax", "result": 87, "unit": "%"}, {"measurement": "IC50", "result": 80, "unit": "nM"}]}
{"smiles": "NS(=O)(=O)c1cc(NC(=O)Cc2c(F)cccc2Cl)ccc1-n1cc(C(F)(F)F)cn1", "note": "[Example 113, 2-(2-Chloro-6-fluorophenyl)-N-{3-sulfamoyl-4-[4-(trifluoromethyl)-1H-pyrazol-1-yl]phenyl}acetamide]", "values": [{"measurement": "Emax", "result": 86, "unit": "%"}, {"measurement": "IC50", "result": 133, "unit": "nM"}]}
{"smiles": "NS(=O)(=O)c1cc(NC(=O)Cc2c(F)ccc(F)c2Cl)ccc1-n1cc(F)cn1", "note": "[Example 164, 2-(2-Chloro-3,6-difluorophenyl)-N-[4-(4-fluoro-1H-pyrazol-1-yl)-3-sulfamoylphenyl]-acetamide]", "values": [{"measurement": "Emax", "result": 83, "unit": "%"}, {"measurement": "IC50", "result": 27, "unit": "nM"}]}
{"smiles": "Cn1nc(-c2ccc(NC(=O)Cc3ccccc3Cl)cc2S(N)(=O)=O)cc1C(C)(C)O", "note": "[Example 288, 2-(2-Chlorophenyl)-N-{4-[5-(2-hydroxypropan-2-yl)-1-methyl-1H-pyrazol-3-yl]-3-sulfamoylphenyl}acetamide]", "values": [{"measurement": "Emax", "result": 68, "unit": "%"}, {"measurement": "IC50", "result": 275, "unit": "nM"}]}
{"smiles": "NS(=O)(=O)c1cc(NC(=O)Cc2cc(F)c(F)cc2Cl)ccc1-n1cc(F)cn1", "note": "[Example 161, 2-(2-Chloro-4,5-difluorophenyl)-N-[4-(4-fluoro-1H-pyrazol-1-yl)-3-sulfamoylphenyl]]", "values": [{"measurement": "Emax", "result": 43, "unit": "%"}, {"measurement": "IC50", "result": "> 25000", "unit": "nM"}]}
{"smiles": "NS(=O)(=O)c1cc(NC(=O)Cc2ccccc2Cl)ccc1-n1cnc(C2CCC2)n1", "note": "[Example 231, 2-(2-Chlorophenyl)-N-[4-(3-cyclobutyl-1H-1,2,4-triazol-1-yl)-3-sulfamoylphenyl]-acetamide]", "values": [{"measurement": "Emax", "result": 81, "unit": "%"}, {"measurement": "IC50", "result": 51, "unit": "nM"}]}
{"smiles": "NS(=O)(=O)c1cc(NC(=O)Cc2ccccc2Cl)ccc1-c1nnc(C2CC2)o1", "note": "[Example 377, 2-(2-Chlorophenyl)-N-[4-(5-cyclopropyl-1,3,4-oxadiazol-2-yl)-3-sulfamoylphenyl]-acetamide]", "values": [{"measurement": "Emax", "result": 80, "unit": "%"}, {"measurement": "IC50", "result": 27, "unit": "nM"}]}
{"smiles": "CC(=O)c1cnn(-c2ccc(NC(=O)Cc3ccccc3Cl)cc2S(N)(=O)=O)c1", "note": "[Example 232, N-[4-(4-Acetyl-1H-pyrazol-1-yl)-3-sulfamoylphenyl]-2-(2-chlorophenyl)acetamide]", "values": [{"measurement": "Emax", "result": 89, "unit": "%"}, {"measurement": "IC50", "result": 81, "unit": "nM"}]}
{"smiles": "NS(=O)(=O)c1cc(NC(=O)Cc2ccccc2O)ccc1-n1cc(F)cn1", "note": "[Example 147, N-[4-(4-Fluoro-1H-pyrazol-1-yl)-3-sulfamoylphenyl]-2-(2-hydroxyphenyl)acetamide]", "values": [{"measurement": "Emax", "result": 100, "unit": "%"}, {"measurement": "IC50", "result": 80, "unit": "nM"}]}
{"smiles": "Cc1cccc(CC(=O)Nc2ccc(-n3cc(C(F)(F)F)cn3)c(S(N)(=O)=O)c2)c1", "note": "[Example 124, 2-(3-Methylphenyl)-N-{3-sulfamoyl-4-[4-(trifluoromethyl)-1H-pyrazol-1-yl]phenyl}-acetamide]", "values": [{"measurement": "Emax", "result": 62, "unit": "%"}, {"measurement": "IC50", "result": 166, "unit": "nM"}]}
{"smiles": "NS(=O)(=O)c1cc(NC(=O)Cc2ccccc2Cl)cc(Cl)c1-n1cc(C(F)(F)F)cn1", "note": "[Example 499, 2-(2-Chlorophenyl)-N-{3-chloro-5-sulfamoyl-4-[4-(trifluoromethyl)-1H-pyrazol-1-yl]phenyl}acetamide]", "values": [{"measurement": "Emax", "result": 69, "unit": "%"}, {"measurement": "IC50", "result": 347, "unit": "nM"}]}
{"smiles": "NS(=O)(=O)c1cc(NC(=O)Cc2ccccc2Cl)ccc1-c1nc(C(F)(F)F)cs1", "note": "[Example 434, 2-(2-Chlorophenyl)-N-{3-sulfamoyl-4-[4-(trifluoromethyl)-1,3-thiazol-2-yl]phenyl}acetamide]", "values": [{"measurement": "Emax", "result": 50, "unit": "%"}, {"measurement": "IC50", "result": "17800 nM and > 25000 nM"}]}
{"smiles": "NS(=O)(=O)c1cc(NC(=O)Cc2ccccc2Cl)ccc1-n1cnc(C2CC2)c1", "note": "[Example 250, 2-(2-Chlorophenyl)-N-[4-(4-cyclopropyl-1H-imidazol-1-yl)-3-sulfamoylphenyl]-acetamide]", "values": [{"measurement": "Emax", "result": 82, "unit": "%"}, {"measurement": "IC50", "result": 193, "unit": "nM"}]}
{"smiles": "NS(=O)(=O)c1cc(NC(=O)Cc2ccccc2F)cnc1-n1cc(Br)cn1", "note": "[Example 386, N-[6-(4-Bromo-1H-pyrazol-1-yl)-5-sulfamoylpyridin-3-yl]-2-(2-fluorophenyl)acetamide]", "values": [{"measurement": "Emax", "result": 64, "unit": "%"}, {"measurement": "IC50", "result": 76, "unit": "nM"}]}
